Data on one compound can be found in patent publication US20070218147A1, “Peroxisome Proliferator-Activated Receptor (Ppar) Activator, and Drugs, Supplements, Functional Foods and Food Additives Using the Same” (ARKRAY, INC., priority 2004, published 2007).

In this experiment the target is T1, human PPARγ ligand-binding domain (Homo sapiens, UniProt P37231).
T1 construct: expressed in transfected cells; host or cells: CV-1 cells (African green monkey kidney)
T1 sequence (P37231 204-505): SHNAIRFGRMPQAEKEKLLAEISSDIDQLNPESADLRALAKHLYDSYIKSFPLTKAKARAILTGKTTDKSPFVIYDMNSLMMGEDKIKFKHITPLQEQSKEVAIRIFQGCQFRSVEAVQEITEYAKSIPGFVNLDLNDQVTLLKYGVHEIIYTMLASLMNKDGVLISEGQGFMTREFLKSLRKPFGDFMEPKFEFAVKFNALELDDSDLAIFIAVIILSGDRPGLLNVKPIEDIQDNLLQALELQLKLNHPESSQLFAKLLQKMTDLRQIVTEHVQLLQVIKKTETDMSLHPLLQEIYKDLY
The experiment in a line: GAL4-hPPARγ luciferase reporter assay (PPARγ ligand activity) in transfected CV-1 cells. It is filed as cell-based. Particulars: for PPARγ ligand activity: 24 hour incubation, CV-1 cells, luciferase activity relative to non-treatment control (DMSO) = 100, average ± standard error, n=4. The protocol: First, CV-1 cells (cultured cells derived from kidneys of male African green monkeys) were implanted on 24-well culture plates so as to be […] and cultured at 37° C. in 5% CO2 for 24 hours. As a medium, DMEM (Dulbecco's Modified Eagle Medium; manufactured by GIBCO) containing 10% FBS (fetal bovine serum) and a 10 mg/mL penicillin streptomycin solution was used. Next, using Lipofectamine system (manufactured by Invitrogen Corporation), pM-hPPARγ and p4×UASg-tk-luc were transfected into the cultured CV-1 cells. The above-noted pM-hPPARγ was a vector for expressing fused protein containing residues 1 - 147 of GAL4 binding domain and residues 204 - 505 of human PPARγ ligand-binding domain, whereas the above-noted p4×UASg-tk-luc was a reporter plasmid containing four copies of an upstream activating sequence (UAS) for GAL4 binding domain and a thymidine kinase gene promoter in front of a luciferase gene. After the transfection, the cells were cultured for about 24 hours, and then, the media for the cells were changed to media containing β-cryptoxantine at respective concentrations (0.1, 1.0, 10 and 70 μM) or media for non-treatment control, followed by an additional 24 hour incubation. The above-noted media containing β-cryptoxantine were prepared by adding β-cryptoxantine dissolved in dimethyl sulfoxide (DMSO) to the media, whereas the media for non-treatment control were prepared by adding only DMSO to the media. After the incubation, the cells were lysed for luciferase activation assay using a Dual-Luciferase Reporter Gene Assay system (manufactured by Promega Corporation) (measurement group).
Similarly to the measurement group, as a control group, the luciferase activation assay was performed using pM (a vector containing residues 1 - 147 of GAL4 binding domain and not containing residues 204-505 of PPARγ ligand-binding domain in pM-hPPARγ) instead of pM-hPPARγ. For each sample, the ratio between average light-emission intensities of the measurement group and the control group (n=4) (measurement group/control group) was calculated, and a luciferase activity relative to the non-treatment control was determined as the PPARγ ligand-binding activity of the sample.

As to `CC1=C(/C=C/C(C)=C/C=C/C(C)=C/C=C/C=C(C)/C=C/C=C(C)/C=C/C2=C(C)C[C@@H](O)CC2(C)C)C(C)(C)CCC1` [β-cryptoxantine], where the note is “0.1 to 70 μM, activity increased in keeping with the concentration”, the “activity of PPARγ (result in words)” value is reported as “improved the activity of PPARγ”. The compound also displayed a PPARγ ligand activity (addition concentration 0.1 μM) of 119 ± 18.4, a PPARγ ligand activity (addition concentration 1.0 μM) of 159 ± 25.0, a PPARγ ligand activity (addition concentration 10 μM) of 166 ± 21.7 and a PPARγ ligand activity (addition concentration 70 μM) of 246 ± 22.5.
